Reference: patent US20150018396A1, “PREVENTION AND TREATMENT OF RESPIRATORY INFECTION WITH PEROXISOME PROLIFERATOR ACTIVATOR RECEPTOR DELTA AGONIST” (PRESIDENT AND FELLOWS OF HARVARD COLLEGE, priority 2012, published 2015)
“Also recorded” adds a separate entry of the source.

Tests used:
[1] = tested on: Ppar-δ; assay: Gene expression analyses of Balf cells by real-time PCR; type: in vivo, mouse; conditions: mice gavaged for three days
Procedure: (§1) Mice were infected with 5×10^5 CFU of S. pneumoniae. […] Twenty-four hours post-infection, lavage fluid was isolated and analyzed for bacterial counts. […] Mice were gavaged with GW501516 for three days. […] Alveolar macrophages were isolated and ROS was determined using FcOxyburst. Data are presented as mean±SEM. *p<0.05.
For gene expression analyses, we determined relative expression levels using SYBR Green-based real-time qPCR reactions. We used 36B4 expression levels for normalization. For in vitro analyses of infected macrophages, S. pneumoniae conjugated to magnetic beads were used during infection (see Bacterial Growth and Manipulation for details). Cells were infected for 1 hr with conjugated beads. At the end of the experiment, a magnet was used to separate cells that contained intracellular magnetic bacteria. These cells were used for expression analyses.

[2] = tested on: Noxo1 promoter; assay: Noxo1 promoter luciferase reporter in RAW macrophages; type: cell-based; conditions: RAW267.4 macrophages, luciferase reporter driven by 2 kb 5′-regulatory region, treated 12 hours
Procedure: (§2) FIGS. 3a-3c show the transcriptional regulation of macrophage phagosomal function by Ppar-δ. FIGS. 3a and 3b show the expression of genes involved in NADPH oxidase complexes in cultured macrophages and alveolar macrophages, respectively. Gene expression was determined by real-time PCR. […] RAW264.7 macrophages were transfected with a luciferase reporter driven by the 2 kb 5′-regulatory region of the Noxo1 or Nox2 gene. […] Transfection was done in stably transformed wt and Ppar-δ^−/− macrophage cell lines. Data are presented as mean±SEM. *p<0.05.
(§3) To elucidate downstream targets of Ppar-δ mediating phagosomal ROS production, expression of genes involved in this process was analyzed in stably transformed wt and Ppar-δ^−/− macrophages and in alveolar lavage cells from wt and Ppar-δ^mye−/− mice after S. pneumoniae infection. […] To determine whether members of the NADPH complex are transcriptional targets of Ppar-δ, we generated luciferase reporter constructs driven by 2 kb upstream promoters of Noxo1 and Nox2. […] Indeed, we found the expression of Ppar-δ and its known target Slc25a20 increased after bacteria infection (FIG. 7a).

[3] = tested on: S. pneumoniae; assay: Survival in a mouse model of pneumonia (intranasal S. pneumoniae infection); type: in vivo; conditions: wt C57BL/6 mice, 2 mg kg^−1 per day by gavage, 5×10^5 CFU S. pneumoniae
Procedure: as §1
We next sought to explore the therapeutic potential of the Ppar-δ controlled phagosomal function in pathologies associated with infection. For this purpose, wt mice were infected with a higher dose of S. pneumoniae through nasal inhalation, which led to lethality in 75% of mice within 5 days post-injection (FIG. 5a). […] Taken together, our data implicate the potential use of synthetic Ppar-δ agonists to improve the outcomes of bacteria infection, such as pneumonia.
Ppar-δ floxed animals were generated as described previously^33,34. Ppar-δ mice were crossed to lysozyme cre mice (Jackson laboratory) to generate Ppar-δ^mye−/− mice. Ppar-δ^fl/fl mice were used as wt controls. All mice were maintained on a C57BL/6 background. Mice used for survival studies in FIG. 5 were C57BL/6 mice purchased from Jackson Laboratory. Bone marrow from CSS-17 mice was provided by Dr. Colleen Croniger (Case Western Reserve University). For in vivo killing assays, mice were anesthetized with a ketamine/xylazine solution and infected intranasally with 10^6 CFU S. pneumoniae. […]

[4] = tested on: alveolar macrophages; assay: Fc-stimulated phagosomal ROS production ex vivo in isolated alveolar macrophages (FcOxyburst); parameters: species or system mouse; conditions: wt and Ppar-δ mye−/− mice gavaged for 3 days
Procedure: as §1
We next sought to explore the therapeutic potential of the Ppar-δ controlled phagosomal function in pathologies associated with infection. For this purpose, wt mice were infected with a higher dose of S. pneumoniae through nasal inhalation, which led to lethality in 75% of mice within 5 days post-injection (FIG. 5a). […]
Bacterial killing assays were used for in vitro bacterial killing^37,38. […] Colony forming units (CFU) were determined as a measure of bacterial survival. ROS assays were done using FcOxyburst (Invitrogen) according to manufacturers protocols and analyzed by fluorescence activated cell sorting (FACS). Phagocytosis and phagosome number were determined by FACS using Alexa Fluor 647 labeled heat killed S. pneumoniae^32. pH was determined as previously described^32. […] Macrophages were incubated with labeled bacteria and analyzed by FACS for FITC relative to Alexa Fluor 647 signal. ATP and lactate were measured using commercially available kits. […]

[5] = tested on: Noxo1 promoter; assay: Noxo1 promoter luciferase reporter in stably transformed wt and Ppar-δ−/− macrophage cell lines; type: cell-based, mouse; conditions: Ppar-δ−/− macrophage cell lines vs wt
Procedure: as §2, §3
Bone marrow-derived macrophages were differentiated in L929 conditioned media as previously described^14. Stables lines were created from bone marrow of Ppar-δ^mye−/− and control mouse lines using a CreJ2 viral system^35,36. […]

Cc1cc(SCc2sc(-c3ccc(C(F)(F)F)cc3)nc2C)ccc1OCC(=O)O [GW501516]
expression of Ppar-δ in Balf cells [1]: increase
expression of Ppar-δ target gene Slc25a20 in Balf cells [1]: increase
level of Noxa1 mRNA in Balf cells [1]: increased
level of Noxo1 mRNA in Balf cells [1]: increased
promoter activity of Noxo1 [2]: increased; also recorded: able to increase activity of the promoter of Noxo1
onset of death [3]: delayed onset of death
survival compared to vehicle-treated mice ([3]; 3 days prior to and every other day after infection): significant improvement in survival
phagosome ROS production in alveolar macrophages [4]: increased ROS production in a Ppar-δ dependent manner; also recorded: increases phagosome ROS production
ability to induce Noxo1 promoter activity in cells lacking Ppar-δ [5]: lost
